Target: T1, human recombinant LPA2 expressed in CHO cells (Homo sapiens, UniProt Q9HBW0)
T1 construct: expressed in transfected cells; host or cells: CHO cells (CHO-hLPA2 cell line)
Assay: FLIPR calcium mobilization assay, LPA2 antagonism in CHO-hLPA2 cells
Format: cell-based
Settings: CHO-hLPA2 cells, inhibition of LPA EC80 Ca2+ response, 30 min pre-incubation; read-out: LPA2 IC50
Procedure: The effectiveness of compounds of the present invention as LPA2 antagonist can be determined at the human recombinant LPA2 expressed in CHO cells, using a FLIPR assay in 384 well format.
CHO-hLPA2 cell lines are cultured in a humidified incubator at 5% C02 in DMEM/F-12 (1:1) MIXTURE with 2 mM Glutamax, supplemented with 10% of Foetal Bovine Serum, 1 mM Sodium Pyruvate, 11 mM Hepes and 1× Penicillin/Streptomycin. CHO hLPA2 cells are seeded into black walled clear-bottom 384-well plates (#781091, Greiner Bio-One GmbH) at a density of 7,500 cells per well in 50 μl culture media and grown overnight in a 37° C. humidified CO2-incubator. Serial dilutions (1:3 or 1:4, 11 points CRC) of compounds are performed in 100% DMSO at 200× the final concentration. The compounds are diluted 1:50 prior to the experiment with Assay Buffer (20 mM HEPES, 145 mM NaCl, 5 mM KCl, 5.5 mM glucose, 1 mM MgCl2 and 2 mM CaCl2, pH 7.4 containing 0.01% Pluronic F-127) to obtain a solution corresponding to […] the final concentration in the assay (4×, 2% DMSO). The final concentration of DMSO in the assay will be 0.5% in each well. Medium is removed by aspiration and cells are then incubated with 30 μl of a loading solution containing 5 μM of the cytoplasmic Ca2+ indicator Cal-520 AM in Assay Buffer containing 2.5 mM probenecid for 30 min at 37° C. incubator (cell loading). The loaded cell plates are transferred into the FLIPR instrument and calcium responses are monitored during the on-line addition protocols. For testing of compounds, after the cell loading, 10 μl/well of 4× antagonists' solution was added onto the cells. After 30 min pre-incubation (at 37° C.), 10 μl/well of 5× concentrated LPA EC80 was added and Ca2+ mobilization responses was followed during the on-line addition protocol. Intracellular peak fluorescence values subtracted by baseline fluorescence are exported and analysed to determine IC50 values, respectively. The calcium response is expressed as percentage of the maximal inhibition of the EC80 agonist response.
The raw data (peak height expressed as relative fluorescence units) are normalized and transformed into “percent of inhibition”. Curve fitting and pIC50 (−LogIC50) estimations are carried out using a four-parameter logistic model using XLfit Software.

T1 sequence (Q9HBW0 whole entry): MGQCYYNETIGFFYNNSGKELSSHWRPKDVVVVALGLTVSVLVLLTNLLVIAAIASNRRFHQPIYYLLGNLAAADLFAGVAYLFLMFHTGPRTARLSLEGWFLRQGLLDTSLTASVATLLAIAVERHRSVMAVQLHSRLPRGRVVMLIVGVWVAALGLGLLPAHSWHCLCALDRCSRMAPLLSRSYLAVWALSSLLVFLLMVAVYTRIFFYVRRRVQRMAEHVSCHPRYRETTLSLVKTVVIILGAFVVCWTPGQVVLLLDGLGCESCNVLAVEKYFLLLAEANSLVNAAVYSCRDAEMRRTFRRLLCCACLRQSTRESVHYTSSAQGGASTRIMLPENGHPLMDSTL

IC50 [nM] | SMILES
< 10 | COC(=O)Nc1nc(C)c(S(=O)(=O)N2CCN(C[C@H](C)Nc3ncnc4c(-c5cccc(N6CCN(C)CC6)c5)cccc34)CC2)s1 [Example 35, methyl N-[4-methyl-5-({4-[(2S)-2-({8-[3-(4-methylpiperazin-1-yl)phenyl]quinazolin-4-yl}amino)propyl]piperazin-1-yl}sulfonyl)-1,3-thiazol-2-yl]carbamate]
< 10 | COC(=O)Nc1nc(C)c(S(=O)(=O)N2CCN(C[C@H](C)Nc3ncnc4c(-c5ccc(N6CCN(C)CC6)cc5)cccc34)CC2)s1 [Example 36, methyl N-[4-methyl-5-({4-[(2S)-2-({8-[4-(4-methylpiperazin-1-yl)phenyl]quinazolin-4-yl}amino)propyl]piperazin-1-yl}sulfonyl)-1,3-thiazol-2-yl]carbamate]
< 10 | CC(=O)Nc1ncc(S(=O)(=O)N2CCN(C[C@H](C)Nc3ncnc4c(-c5cccnc5)cccc34)CC2)s1 [Example 37, N-[5-({4-[(2S)-2-{[8-(pyridin-3-yl)quinazolin-4-yl]amino}propyl]piperazin-1-yl}sulfonyl)-1,3-thiazol-2-yl]acetamide]
< 10 | C[C@@H](CN1CCN(S(=O)(=O)c2ccc3[nH]c(=O)sc3c2)CC1)Nc1ncnc2c(-c3cccnc3)cccc12 [Example 38, 6-({4-[(2S)-2-{[8-(pyridin-3-yl)quinazolin-4-yl]amino}propyl]piperazin-1-yl}sulfonyl)-2,3-dihydro-1,3-benzothiazol-2-one]
10 to 100 | Cc1nc(NCCN(C)C)sc1S(=O)(=O)N1CCN(C[C@H](C)Nc2ncnc3c(-c4c(C)n[nH]c4C)cccc23)CC1 [Example 39, 8-(3,5-dimethyl-1H-pyrazol-4-yl)-N-[(2S)-1-{4-[(2-{[2-(dimethylamino)ethyl]amino}-4-methyl-1,3-thiazol-5-yl)sulfonyl]piperazin-1-yl}propan-2-yl]quinazolin-4-amine]
< 10 | COC(=O)Nc1nc(C)c(S(=O)(=O)N2CCN(C[C@H](C)Nc3ncnc4c(-c5cncnc5)cccc34)CC2)s1 [Example 40, methyl N-[4-methyl-5-({4-[(2S)-2-{[8-(pyrimidin-5-yl)quinazolin-4-yl]amino}propyl]piperazin-1-yl}sulfonyl)-1,3-thiazol-2-yl]carbamate]
10 to 100 | COC(=O)Nc1nc(C)c(S(=O)(=O)N2CCN(C[C@H](C)Nc3ncnc4c(C5CC5)cccc34)CC2)s1 [Example 41, methyl N-[5-({4-[(2S)-2-[(8-cyclopropylquinazolin-4-yl)amino]propyl]piperazin-1-yl}sulfonyl)-4-methyl-1,3-thiazol-2-yl]carbamate]
10 to 100 | CC(=O)Nc1cc(F)c(S(=O)(=O)N2CCN(C[C@H](C)Nc3ncnc4c(-c5cccnc5)cccc34)CC2)cc1C [Example 42, N-[5-fluoro-2-methyl-4-({4-[(2S)-2-{[8-(pyridin-3-yl)quinazolin-4-yl]amino}propyl]piperazin-1-yl}sulfonyl)phenyl]acetamide]
< 10 | CC(=O)N1CCc2cc(S(=O)(=O)N3CCN(C[C@H](C)Nc4ncnc5c(-c6cccnc6)cccc45)CC3)ccc21 [Example 43, 1-[5-({4-[(2S)-2-{[8-(pyridin-3-yl)quinazolin-4-yl]amino}propyl]piperazin-1-yl}sulfonyl)-2,3-dihydro-1H-indol-1-yl]ethan-1-one]
< 10 | COC(=O)Nc1nc(C)c(S(=O)(=O)N2CCN(C[C@H](C)Nc3ncnc4c(-c5ccnc(N6CCN(C)CC6)c5)cccc34)CC2)s1 [Example 44, methyl N-[4-methyl-5-({4-[(2S)-2-({8-[2-(4-methylpiperazin-1-yl)pyridin-4-yl]quinazolin-4-yl}amino)propyl]piperazin-1-yl}sulfonyl)-1,3-thiazol-2-yl]carbamate]
< 10 | C[C@@H](CN1CCN(S(=O)(=O)c2ccc3[nH]c(=O)sc3c2)CC1)Nc1ncnc2c(-c3cccc(CN(C)C)c3)cccc12 [Example 45, 6-({4-[(2S)-2-[(8-{3-[(dimethylamino)methyl]phenyl}quinazolin-4-yl)amino]propyl]piperazin-1-yl}sulfonyl)-2,3-dihydro-1,3-benzothiazol-2-one]
< 10 | C[C@@H](CN1CCN(S(=O)(=O)c2ccc(Cl)c(Cl)c2)CC1)Nc1ncnc2c(-c3cccc(CN(C)C)c3)cccc12 [Example 46, N-[(2S)-1-[4-(3,4-dichlorobenzenesulfonyl)piperazin-1-yl]propan-2-yl]-8-{3-[(dimethylamino)methyl]phenyl}quinazolin-4-amine]
< 10 | COC(=O)Nc1ncc(S(=O)(=O)N2CCN(C[C@H](C)Nc3ncnc4c(-c5cccnc5)cccc34)CC2)s1 [Example 47, methyl N-[5-({4-[(2S)-2-{[8-(pyridin-3-yl)quinazolin-4-yl]amino}propyl]piperazin-1-yl}sulfonyl)-1,3-thiazol-2-yl]carbamate]
< 10 | COC(=O)Nc1nc(C)c(S(=O)(=O)N2CCN(C[C@H](C)Nc3ncnc4c(-c5cccnc5C)cccc34)CC2)s1 [Example 48, methyl N-[4-methyl-5-({4-[(2S)-2-{[8-(2-methylpyridin-3-yl)quinazolin-4-yl]amino}propyl]piperazin-1-yl}sulfonyl)-1,3-thiazol-2-yl]carbamate]
10 to 100 | COCC(=O)Nc1ncc(S(=O)(=O)N2CCN(C[C@H](C)Nc3ncnc4c(-c5cccnc5)cccc34)CC2)s1 [Example 49, 2-methoxy-N-[5-({4-[(2S)-2-{[8-(pyridin-3-yl)quinazolin-4-yl]amino}propyl]piperazin-1-yl}sulfonyl)-1,3-thiazol-2-yl]acetamide]
< 10 | C[C@@H](CN1CCN(S(=O)(=O)c2ccc3[nH]c(=O)[nH]c(=O)c3c2)CC1)Nc1ncnc2c(-c3cccnc3)cccc12 [Example 51, 6-({4-[(2S)-2-{[8-(pyridin-3-yl)quinazolin-4-yl]amino}propyl]piperazin-1-yl}sulfonyl)-1,2,3,4-tetrahydroquinazoline-2,4-dione]
10 to 100 | C[C@@H](CN1CCN(S(=O)(=O)c2ccc(F)c(F)c2)CC1)Nc1ncnc2c(-c3cccnc3)cccc12 [Example 52, N-[(2S)-1-[4-(3,4-difluorobenzenesulfonyl)piperazin-1-yl]propan-2-yl]-8-(pyridin-3-yl)quinazolin-4-amine]
< 10 | CC(=O)Nc1cc(F)c(S(=O)(=O)N2CCN(C[C@H](C)Nc3ncnc4c(-c5cccc(CN(C)C)c5)cccc34)CC2)cc1C [Example 53, N-[4-({4-[(2S)-2-[(8-{3-[(dimethylamino)methyl]phenyl}quinazolin-4-yl)amino]propyl]piperazin-1-yl}sulfonyl)-5-fluoro-2-methylphenyl]acetamide]
< 10 | CC(=O)N1CCc2cc(S(=O)(=O)N3CCN(C[C@H](C)Nc4ncnc5c(-c6cccc(CN(C)C)c6)cccc45)CC3)ccc21 [Example 54, 1-[5-({4-[(2S)-2-[(8-{3-[(dimethylamino)methyl]phenyl}quinazolin-4-yl)amino]propyl]piperazin-1-yl}sulfonyl)-2,3-dihydro-1H-indol-1-yl]ethan-1-one]
< 10 | COC(=O)Nc1nc(C)c(S(=O)(=O)N2CCN(C[C@H](C)Nc3ncnc4c(-c5cncc(CN(C)C)c5)cccc34)CC2)s1 [Example 55, methyl N-[5-({4-[(2S)-2-[(8-{5-[(dimethylamino)methyl]pyridin-3-yl}quinazolin-4-yl)amino]propyl]piperazin-1-yl}sulfonyl)-4-methyl-1,3-thiazol-2-yl]carbamate]
10 to 100 | COC(=O)Nc1nc(C)c(S(=O)(=O)N2CCN(C[C@H](C)Nc3ncnc4c(-c5ccc(N)nc5)cccc34)CC2)s1 [Example 56, methyl N-[5-({4-[(2S)-2-{[8-(6-aminopyridin-3-yl)quinazolin-4-yl]amino}propyl]piperazin-1-yl}sulfonyl)-4-methyl-1,3-thiazol-2-yl]carbamate]
< 10 | COC(=O)Nc1nc(C)c(S(=O)(=O)N2CCN(C[C@H](C)Nc3ncnc4c(-c5ccc6c(c5)CNC6)cccc34)CC2)s1 [Example 57, methyl N-[5-({4-[(2S)-2-{[8-(2,3-dihydro-1H-isoindol-5-yl)quinazolin-4-yl]amino}propyl]piperazin-1-yl}sulfonyl)-4-methyl-1,3-thiazol-2-yl]carbamate]
< 10 | COC(=O)Nc1nc(C)c(S(=O)(=O)N2CCN(C[C@H](C)Nc3ncnc4c(-c5cnn(CCN(C)C)c5)cccc34)CC2)s1 [Example 58, methyl N-[5-({4-[(2S)-2-[(8-{1-[2-(dimethylamino)ethyl]-1H-pyrazol-4-yl}quinazolin-4-yl)amino]propyl]piperazin-1-yl}sulfonyl)-4-methyl-1,3-thiazol-2-yl]carbamate]

Reference: US20240190860A1, “8-CYCLO-SUBSTITUTED QUINAZOLINE DERIVATIVES AS LPA RECEPTOR 2 INHIBITORS” (CHIESI FARMACEUTICI S.p.A., priority 2021, published 2024)
